Laboratory results taken from ChEMBL document CHEMBL3817828, “Design, synthesis and evaluation of novel tetrahydrothieno[3,2-c]pyridine derivatives as potent smoothened antagonists” (Medchemcomm, 2016).

Tests used:
[1] = Inhibition of Hh receptor (unknown origin) expressed in SAG-stimulated mouse NIH3T3 cells incubated for 24 hrs by Gli-luciferase reporter gene assay; type: cell-based; settings: NIH3T3, 24 h
[2] = target: Protein smoothened (Homo sapiens, UniProt Q99835); assay: Displacement of BODIPY-cyclopamine from human Smo expressed in HEK293 cells incubated for 3 hrs by fluorescence competitive displacement assay; type: cell-based
Protein smoothened, sequence (Q99835 whole entry): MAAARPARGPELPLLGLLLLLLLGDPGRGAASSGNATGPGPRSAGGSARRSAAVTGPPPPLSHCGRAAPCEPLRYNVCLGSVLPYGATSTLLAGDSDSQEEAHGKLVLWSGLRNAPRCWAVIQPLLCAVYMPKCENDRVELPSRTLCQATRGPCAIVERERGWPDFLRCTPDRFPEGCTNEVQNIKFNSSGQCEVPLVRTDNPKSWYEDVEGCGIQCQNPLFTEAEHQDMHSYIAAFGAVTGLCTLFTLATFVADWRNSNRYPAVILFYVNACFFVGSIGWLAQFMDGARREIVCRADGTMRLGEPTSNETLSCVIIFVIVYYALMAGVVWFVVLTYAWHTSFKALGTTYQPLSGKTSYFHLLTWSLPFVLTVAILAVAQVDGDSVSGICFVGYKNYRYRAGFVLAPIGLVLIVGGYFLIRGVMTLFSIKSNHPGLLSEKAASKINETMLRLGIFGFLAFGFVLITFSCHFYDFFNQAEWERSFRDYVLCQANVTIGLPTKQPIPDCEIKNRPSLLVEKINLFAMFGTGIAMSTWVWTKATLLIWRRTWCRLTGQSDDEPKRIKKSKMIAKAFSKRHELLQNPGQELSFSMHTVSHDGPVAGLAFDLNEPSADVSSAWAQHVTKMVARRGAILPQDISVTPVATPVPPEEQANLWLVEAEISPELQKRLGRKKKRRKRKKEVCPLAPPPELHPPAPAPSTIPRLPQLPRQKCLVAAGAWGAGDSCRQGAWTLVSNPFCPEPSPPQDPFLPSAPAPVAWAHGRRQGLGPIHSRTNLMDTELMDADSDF

| SMILES | IC50 [1] [nM] | IC50 [2] [nM] |
| --- | --- | --- |
| COc1ccc(N2CCN(C(=O)c3cc4c(s3)CCN(c3cccc(-c5nc6ccccc6n5C)c3)C4)CC2)cc1 | 1260 |  |
| CCN(CC)C(=O)c1cc2c(s1)CCN(c1cccc(-c3nc4ccccc4n3C)c1)C2 | 1340 |  |
| Cn1c(-c2cccc(N3CCc4sc(C(=O)N5CCOCC5)cc4C3)c2)nc2ccccc21 | 210 | 294 |
| CN1CCN(C(=O)c2cc3c(s2)CCN(c2ccc(Cl)c(-c4nc5ccccc5n4C)c2)C3)CC1 | 130 | 135 |
| Cn1c(-c2cccc(N3CCc4sc(C(=O)Nc5ccc(F)c(Br)c5)cc4C3)c2)nc2ccccc21 | 350 |  |
| Cn1c(-c2cccc(N3CCc4sc(C(=O)Nc5ccccc5)cc4C3)c2)nc2ccccc21 | 850 |  |
| CN(C)C(=O)c1cc2c(s1)CCN(c1cccc(-c3nc4ccccc4n3C)c1)C2 | 1560 |  |
| CN1CCN(C(=O)c2cc3c(s2)CCN(c2cccc(-c4nc5ccccc5n4C)c2)C3)CC1 | 170 | 326 |
| Cc1ccc(NC(=O)c2cc3c(s2)CCN(c2cccc(-c4nc5ccccc5n4C)c2)C3)cc1Cl | 310 |  |
| Cn1c(-c2cc(N3CCc4sc(C(=O)N5CCCC5)cc4C3)ccc2Cl)nc2ccccc21 | 220 | 315 |
| CC1CCCCN1C(=O)c1cc2c(s1)CCN(c1cccc(-c3nc4ccccc4n3C)c1)C2 (centres undefined) | 330 |  |
| CC(C)CNC(=O)c1cc2c(s1)CCN(c1cccc(-c3nc4ccccc4n3C)c1)C2 | 1720 |  |
| CC(=O)N1CCN(C(=O)c2cc3c(s2)CCN(c2cccc(-c4nc5ccccc5n4C)c2)C3)CC1 | 370 |  |
| Cn1c(-c2cccc(N3CCc4sc(C(=O)N5CCN(c6cccc(Cl)c6)CC5)cc4C3)c2)nc2ccccc21 | 380 |  |
| Cn1c(-c2cccc(N3CCc4sc(C(=O)Nc5ccc(Br)cc5)cc4C3)c2)nc2ccccc21 | 450 |  |
| Cn1c(-c2cc(N3CCc4sc(C(=O)Nc5cccnc5)cc4C3)ccc2Cl)nc2ccccc21 | 140 | 56 |
| Cn1c(-c2cccc(N3CCc4sc(C(=O)N5CCN(c6ccccc6)CC5)cc4C3)c2)nc2ccccc21 | 1320 |  |
| Cn1c(-c2cc(N3CCc4sc(C(=O)N5CCN(c6ncccn6)CC5)cc4C3)ccc2Cl)nc2ccccc21 | 90 | 92 |
| COc1cccc(NC(=O)c2cc3c(s2)CCN(c2cccc(-c4nc5ccccc5n4C)c2)C3)c1 | 660 |  |
| Cn1c(-c2cccc(N3CCc4sc(C(=O)N5CCC(O)CC5)cc4C3)c2)nc2ccccc21 | 280 | 431 |
| Cn1c(-c2cccc(N3CCc4sc(C(=O)N5CCN(c6ccccn6)CC5)cc4C3)c2)nc2ccccc21 | 340 |  |
| Cn1c(-c2cc(N3CCc4sc(C(=O)N5CCOCC5)cc4C3)ccc2Cl)nc2ccccc21 | 60 | 18 |

| SMILES | IC50 [1] [nM] | IC50 [2] [nM] |
| --- | --- | --- |
| Cn1c(-c2cccc(N3CCc4sc(C(=O)N5CCN(c6ccccc6F)CC5)cc4C3)c2)nc2ccccc21 | 760 |  |
| Cn1c(-c2cccc(N3CCc4sc(C(=O)N5CCN(C(c6ccccc6)c6ccccc6)CC5)cc4C3)c2)nc2ccccc21 | > 15000 |  |
| Cc1ccc(NC(=O)c2cc3c(s2)CCN(c2cccc(-c4nc5ccccc5n4C)c2)C3)cc1 | 1630 |  |
| Cn1c(-c2cc(N3CCc4sc(C(=O)N5CCN(S(C)(=O)=O)CC5)cc4C3)ccc2Cl)nc2ccccc21 | 240 | 217 |
| Cn1c(-c2cccc(N3CCc4sc(C(=O)N5CCN(c6ccc(Cl)c(Cl)c6)CC5)cc4C3)c2)nc2ccccc21 | 270 | 456 |
| Cn1c(-c2cccc(N3CCc4sc(C(=O)N5CCN(c6ncccn6)CC5)cc4C3)c2)nc2ccccc21 | 150 | 237 |
| Cn1c(-c2cccc(N3CCc4sc(C(=O)N5CCCC5)cc4C3)c2)nc2ccccc21 | 260 | 352 |
| Cn1c(-c2cccc(N3CCc4sc(C(=O)Nc5cccnc5)cc4C3)c2)nc2ccccc21 | 200 | 261 |
| Cn1c(-c2cccc(N3CCc4sc(C(=O)N5CCN(c6ccc(F)cc6)CC5)cc4C3)c2)nc2ccccc21 | 320 |  |
| Cn1c(-c2cccc(N3CCc4sc(C(=O)N5CCN(S(C)(=O)=O)CC5)cc4C3)c2)nc2ccccc21 | 220 | 373 |
| Cn1c(-c2cccc(N3CCc4sc(C(=O)Nc5ccccc5F)cc4C3)c2)nc2ccccc21 | 360 |  |
| Cn1c(-c2cccc(N3CCc4sc(C(=O)N5CCN(c6cccc(C(F)(F)F)c6)CC5)cc4C3)c2)nc2ccccc21 | 1760 |  |
| Cn1c(-c2cccc(N3CCc4sc(C(=O)Nc5ccc(F)c(F)c5)cc4C3)c2)nc2ccccc21 | 270 |  |
| Cn1c(-c2cc(N3CCc4sc(C(=O)N5CCN(c6ccc(Cl)c(Cl)c6)CC5)cc4C3)ccc2Cl)nc2ccccc21 | 160 | 213 |
| Cn1c(-c2cccc(N3CCc4sc(C(=O)N5CCN(C(=O)c6ccco6)CC5)cc4C3)c2)nc2ccccc21 | 490 |  |
| COc1ccccc1N1CCN(C(=O)c2cc3c(s2)CCN(c2cccc(-c4nc5ccccc5n4C)c2)C3)CC1 | 2350 |  |
| Cn1c(-c2cccc(N3CCc4sc(C(=O)N5CCN(C(=O)OC(C)(C)C)CC5)cc4C3)c2)nc2ccccc21 | 2080 |  |
| CCN1CCN(C(=O)c2cc3c(s2)CCN(c2cccc(-c4nc5ccccc5n4C)c2)C3)CC1 | 350 |  |
| CS(=O)(=O)c1ccc(C(=O)Nc2ccc(Cl)c(-c3ccccn3)c2)c(Cl)c1 [VISMODEGIB] | 25 |  |
| CNC(=O)c1cc2c(s1)CCN(c1cccc(-c3nc4ccccc4n3C)c1)C2 | 1410 |  |
| Cn1c(-c2cc(N3CCc4sc(C(=O)N5CCC(O)CC5)cc4C3)ccc2Cl)nc2ccccc21 | 190 | 192 |
